The target of the test is GST-hRIPK1 (8-327) (Homo sapiens (Human), UniProt Q13546). Put plainly: Fluorescent Polarization Binding (FP Binding) assay, RIPK1. The note with it: 10 nM GST-hRIPK1 (8-327), 5 nM fluorescent-labeled ligand, RT, 30 min, mean of at least two independent experiments. The method in brief: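 Binding by fluorescence polarisation at RT: 10 nM baculovirus-expressed GST-hRIPK1 (8-327) and 5 nM fluorescent ligand, 30 min, in 50 mM HEPES pH 7.5, 50 mM MgCl2, 0.02% CHAPS, 1% DMSO. FP read at ex 531/em 595 nm. IC50 from normalised percent inhibition, mean of ≥2 experiments.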
Sequence of GST-hRIPK1 (8-327) (Q13546 8-327): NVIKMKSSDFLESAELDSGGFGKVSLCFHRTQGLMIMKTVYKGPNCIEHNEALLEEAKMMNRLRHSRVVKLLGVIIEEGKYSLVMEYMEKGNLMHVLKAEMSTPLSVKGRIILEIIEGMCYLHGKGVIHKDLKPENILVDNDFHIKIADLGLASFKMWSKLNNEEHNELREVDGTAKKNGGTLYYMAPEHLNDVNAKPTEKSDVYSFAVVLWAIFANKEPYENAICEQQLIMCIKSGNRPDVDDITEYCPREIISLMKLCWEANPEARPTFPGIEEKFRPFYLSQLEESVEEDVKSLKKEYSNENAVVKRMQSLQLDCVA

As to `Cc1cncc2c1OCCN(C(=O)C(C)(C)C(F)F)C2` [Example 62, 3,3-difluoro-2,2-dimethyl-1-(9-methyl-3,5-dihydro-2H-pyrido[3,4-f][1,4]oxazepin-4-yl)propan-1-one], the IC50 is more than 1000 nM.

In turn, `CCC1(C(=O)N2CCOc3c(C#N)cncc3C2)CC1` [Example 63, 4-(1-ethylcyclopropanecarbonyl)-3,5-dihydro-2H-pyrido[3,4-f][1,4]oxazepine-9-carbonitrile] came in with an IC50 of 100 to 1000 nM.

`CCC1(C(=O)N2CCOc3c(C#N)cncc3C2)CCC1` [Example 64, 4-(1-ethylcyclobutanecarbonyl)-3,5-dihydro-2H-pyrido[3,4-f][1,4]oxazepine-9-carbonitrile] showed an IC50 of 100 to 1000 nM.

The compound `C[C@@H]1C[C@]1(C)C(=O)N1CCOc2c(C#N)cncc2C1` [Example 65, 4-[(1S,2R)-1,2-dimethylcyclopropanecarbonyl]-3,5-dihydro-2H-pyrido[3,4-f][1,4]oxazepine-9-carbonitrile] had an IC50 of 100 to 1000 nM.

`CC(C)(C(=O)N1CCOc2cc(C(F)(F)F)ncc2C1)C(F)F` [Example 66, 3,3-difluoro-2,2-dimethyl-1-[8-(trifluoromethyl)-3,5-dihydro-2H-pyrido[3,4-f][1,4]oxazepin-4-yl]propan-1-one] registered an IC50 of more than 1000 nM.

Consider `CCC(C)(C(=O)N1CCOc2c(C#N)cncc2C1)C(F)(F)F` (stereo not drawn) [Example 67, 4-[2-methyl-2-(trifluoromethyl)butanoyl]-3,5-dihydro-2H-pyrido[3,4f][1,4]oxazepine-9-carbonitrile], for which the IC50 was in the range of 0.1 to 100 nM.

As for `CC(C)(C(=O)N1CCOc2cc(F)ccc2C1)C(F)F` [Example 68, 3,3-difluoro-1-(8-fluoro-3,5-dihydro-2H-1,4-benzoxazepin-4-yl)-2,2-dimethyl-propan-1-one], the IC50 is 100 to 1000 nM.

For the compound `CC(C)(OC(F)(F)F)C(=O)N1CCOc2c(C#N)cncc2C1` [Example 69, 4-[2-methyl-2-(trifluoromethoxy)propanoyl]-3,5-dihydro-2H-pyrido[3,4-f][1,4]oxazepine-9-carbonitrile], the IC50 was 0.1 to 100 nM.

Regarding `CC(C)(CC#N)C(=O)N1CCOc2c(F)cncc2C1` [Example 70, 4-(9-fluoro-2,3-dihydropyrido[3,4-f][1,4]oxazepin-4(5H)-yl)-3,3-dimethyl-4-oxobutanenitrile], the IC50 lay in the range of 100 to 1000 nM.

As to `CC(C#N)C(C)(C)C(=O)N1CCOc2c(F)cncc2C1` (stereo not drawn) [Example 71, 4-(9-fluoro-2,3-dihydropyrido[3,4-f][1,4]oxazepin-4(5H)-yl)-2,3,3-trimethyl-4-oxobutanenitrile], the IC50 is more than 1000 nM.

Consider `CC(C#N)C(C)(C)C(=O)N1CCOc2c(C#N)cncc2C1` (stereo not drawn) [Example 72], for which the IC50 lay within 100 to 1000 nM.

As to `CCC(C)(CC#N)C(=O)N1CCOc2c(F)cncc2C1` (stereo not drawn) [Example 73, 3-(9-fluoro-3,5-dihydro-2H-pyrido[3,4-f][1,4]oxazepine-4-carbonyl)-3-methyl-pentanenitrile], the IC50 was 100 to 1000 nM.

In the case of `CCC(C)(CC#N)C(=O)N1CCOc2c(C#N)cncc2C1` (stereo not drawn) [Example 74, 4-[2-(cyanomethyl)-2-methyl-butanoyl]-3,5-dihydro-2H-pyrido[3,4-f][1,4]oxazepine-9-carbonitrile], the concentration for half-maximal inhibition (IC50) was in the range of 0.1 to 100 nM.

Turning to `CCC(C)(C)C(=O)N1Cc2cncc(C#N)c2OC[C@H]1C` [Example 75, (3R)-4-(2,2-dimethylbutanoyl)-3-methyl-3,5-dihydro-2H-pyrido[3,4-f][1,4]oxazepine-9-carbonitrile], the IC50 fell in the range of 0.1 to 100 nM.

Regarding `CCC(C)C(=O)N1Cc2cncc(C#N)c2OC[C@H]1C` (stereo partly drawn) [Example 76, (3R)-3-methyl-4-(2-methylbutanoyl)-3,5-dihydro-2H-pyrido[3,4-f][1,4]oxazepine-9-carbonitrile], the IC50 lay in the range of 100 to 1000 nM.

As for `C[C@@H]1COc2c(C#N)cncc2CN1C(=O)C(C)(C)CF` [Example 77, (3R)-4-(3-fluoro-2,2-dimethyl-propanoyl)-3-methyl-3,5-dihydro-2H-pyrido[3,4-f][1,4]oxazepine-9-carbonitrile], the 50% inhibitory concentration (IC50) lay in the range of 0.1 to 100 nM.

With `C[C@@H]1COc2c(C#N)cncc2CN1C(=O)C(C)(C)C` [Example 78, (3R)-4-(2,2-dimethylpropanoyl)-3-methyl-3,5-dihydro-2H-pyrido[3,4-f][1,4]oxazepine-9-carbonitrile], the IC50 lay in the range of 0.1 to 100 nM.

`CC(C)(C(=O)N1CCOc2c(F)cncc2C1)C(F)(F)F` [Example 79, 3,3,3-trifluoro-1-(9-fluoro-3,5-dihydro-2H-pyrido[3,4-f][1,4]oxazepin-4-yl)-2,2-dimethyl-propan-1-one] showed an IC50 of 100 to 1000 nM.

For `CC(C)(C)C(=O)N1CCOc2c(F)cncc2C1` [Example 80, 1-(9-fluoro-3,5-dihydro-2H-pyrido[3,4-f][1,4]oxazepin-4-yl)-2,2-dimethyl-propan-1-one], the IC50 lay in the range of 100 to 1000 nM.

`CC(C)(C(=O)N1CCOc2c(C#N)cncc2C1)C1(O)CC1` [Example 81, 4-(2-(1-hydroxycyclopropyl)-2-methylpropanoyl)-2,3,4,5-tetrahydropyrido[3,4-f][1,4]oxazepine-9-carbonitrile] returned an IC50 of more than 1000 nM.

The compound `CC(C)(C(=O)N1CCOc2c(C#N)cncc2C1)C1CC1C(F)F` (stereo not drawn) [Example 82, 4-[2-(-2-(difluoromethyl)cyclopropyl)-2-methyl-propanoyl]-3,5-dihydro-2H-pyrido[3,4-f][1,4]oxazepine-9-carbonitrile] registered an IC50 of 100 to 1000 nM.

As to `CC(C)(C(=O)N1CCOc2c(C#N)cncc2C1)C1CC1C#N` (stereo not drawn) [Example 83, 4-[2-(2-cyanocyclopropyl)-2-methyl-propanoyl]-3,5-dihydro-2H-pyrido[3,4-f][1,4]oxazepine-9-carbonitrile], the IC50 is more than 1000 nM.

In the case of `CC(C)(C(=O)N1CCOc2c(C#N)cncc2C1)C1CC(F)(F)C1` [Example 84, 4-[2-(3,3-difluorocyclobutyl)-2-methyl-propanoyl]-3,5-dihydro-2H-pyrido[3,4-f][1,4]oxazepine-9-carbonitrile], the IC50 was 0.1 to 100 nM.

Take `CC(C)(C(=O)N1CCOc2c(C#N)cncc2C1)C1CN(c2ncc(F)cn2)C1` [Example 85, 4-[2-[1-(5-fluoropyrimidin-2-yl)azetidin-3-yl]-2-methyl-propanoyl]-3,5-dihydro-2H-pyrido[3,4-f][1,4]oxazepine-9-carbonitrile]: the IC50 fell in the range of 100 to 1000 nM.

With `C[C@@H]1COc2c(C#N)cncc2CN1C(=O)C1(F)CCN(c2ncc(F)cn2)CC1` [Example 86, (3R)-4-[4-fluoro-1-(5-fluoropyrimidin-2-yl)piperidine-4-carbonyl]-3-methyl-3,5-dihydro-2H-pyrido[3,4-f][1,4]oxazepine-9-carbonitrile], the IC50 was 0.1 to 100 nM.

Take `N#Cc1cncc2c1OCCN(C(=O)C1(F)CCN(c3cnccn3)CC1)C2` [Example 87, 4-(4-fluoro-1-pyrazin-2-yl-piperidine-4-carbonyl)-3,5-dihydro-2H-pyrido[3,4-f][1,4]oxazepine-9-carbonitrile]: the IC50 is 100 to 1000 nM.

`N#Cc1cncc2c1OCCN(C(=O)C1(F)CCN(c3ccncn3)CC1)C2` [Example 88, 4-(4-fluoro-1-pyrimidin-4-yl-piperidine-4-carbonyl)-3,5-dihydro-2H-pyrido[3,4-f][1,4]oxazepine-9-carbonitrile] gave an IC50 of 100 to 1000 nM.

Source of the values: patent US11203600B2 (Denali Therapeutics Inc., priority 2017, dated 2021).
